In test [1] the test system is HEK293 cells. The experiment in a line: Clonogenic assay, HEK293 cells transfected with GPNMB or empty vector. It counts as cell-based, human. The conditions noted are these: 96 hours treatment. The method, then: Cells were plated in 96-well plates and allowed to recover overnight. […] The cells were then transferred into 6-well plates and allowed to form colonies. Colonies were stained with Giemsa stain (Sigma) and counted. The surviving cell fractions were calculated based upon the ratio of the treated sample and the untreated control. The results were expressed as a percentage of control using GraphPad Prism Version 4 software.
Immunoblot (FIG. 9A) and FACS (FIG. 9B) analyses confirmed that GPNMB was expressed in GPNMB/plasmid transfected cells.

Test [2] has as its system SK-Mel-2 cells. The experiment in a line: ADCC assay with human PBMC (DELFIA EuTDA cytotoxicity). It counts as cell-based. The conditions noted are these: 30 to 100 fold PBMC; 2, 5, 10 μg/200 μl mAb. The method, then:
Human PBMC were isolated from whole blood using a Ficoll-Plaque. Briefly, in a 50 mL tube, 15 mL of PBS was added to 20 mL of whole blood which was underlayed with 10 mL Ficoll-Plaque and the tube was centrifuged at 2000 RPM. Mononuclear cells were collected from the interface and washed 3 times with PBS. The ADCC assay was carried out in a 96 well plate using a fluorescence assay for cytolysis from Perkin-Elmer (DELFIAEuTDA Cytotoxic assay). The procedure is based on loading target cells with a fluorescence enhancing ligand (BATDA, bis (acetoxymethyl) terpyridine—dicarboxylate). The hydrophic ligand penetrates the membrane quickly. Within the cell the esterbonds are hydrolyzed to form a hydrophilic ligand (TDA, terpyridine—dicarboxylic acid) which can no longer pass through the membrane. After cytolysis the ligand is released and introduced to the Europium solution. The europium and the ligand form a highly fluorescent and stable chelate (EuTDA). Fluorescence intensity are recorded using excitation and emission wavelengths as λex=340 nm and λem=613 nm, respectively.

Test [3] deals with CG56972-expressing cancer cell lines. Put plainly: Growth of CG56972-expressing cells with naked CR011. Format: cell-based, human. The conditions noted are these: used directly, unconjugated.
For test [4], the system named is Melanoma cell lines. The experiment in a line: Clonogenic assay with 1.15.1-AE, melanoma panel. Format: cell-based, human. How it is done: Melanoma cell lines were plated onto flat bottom 96-well tissue culture plates (Becton Dickinson, Franklin Lakes, N.J., USA). On day 2 or when cells reach ˜25% confluency, various concentrations of unconjugated and Auristatin E-conjugated 1.15.1 were added to cells. MAb 2.6.2-AE was also used as a conjugated isotype control in this study. On day 5, the cells were trypsinized, transferred to 6-well tissue culture plates and incubated at 37° C. Plates were examined daily. On days 8-10, all plates were Giemsa stained and colonies on the plates were counted.

Test [5] relates to CG56972-expressing cells. The experiment in a line: Internalization of cell surface bound antibodies (flow cytometry). Format: cell-based, human. The note with it: following incubation with CG56972-expressing cells. The method, then: Internalization of cell surface bound antibodies was assessed by a modified flow cytometry procedure. […] After washing cells, incubation was shifted to 37° C. for 1 hr to allow internalization of bound antibodies. Cells that remained on ice (total surface bound) or that were incubated at 37° C. […] Labeled cells were analyzed by flow cytometry as described above. The percentage of antibody internalized was determined using the GMRs and the following formula:
Percent internalized=Total surface bound (4° C.)−Total surface bound (37° C.)/Total surface bound (4° C.)×100
(In general: Flow cytometry measures light scatter and fluorescence of single cells or particles in a stream.)

Here are results for two substances from patent US20130244255A1, “ANTIBODIES DIRECTED TO GPNMB AND USES THEREOF” (priority 2006, published 2013).

Turning to “CR011-vcMMAE: CR011 conjugated to monomethyl auristatin E through a protease cleavable valine-citrulline linker; approx. 4 drugs per antibody”, the “sensitivity of GPNMB-expressing HEK293 cells vs control cells to growth-inhibition” value in test [1] is given as “more sensitive”.
Consider “CR011: fully human monoclonal antibody that specifically binds to GPNMB; VH SEQ ID NO: 20, VL SEQ ID NO: 29”, for which, in test [2], the “cytolysis of SK-MEL-2 cells (ADCC)” value is “did not show any cytolysis”. For the same substance, the figures for the “effect of naked antibody on CG56972 expressing cells (in words)” value in test [3] and in test [3] (listed as CR011 IgG2 mAb) were “did not inhibit the growth” and “no effect”, respectively. For the same substance, in test [4], the “effect on growth of all the melanoma cell lines tested (in words)” value is “no effect on growth”. The “internalization (in words)” value in test [5] is “internalized”.
